Measurements from patent US5985926A, “Method for inhibiting intracellular viral replication” (Cell Therapeutics, Inc., priority 1997, dated 1999).

Experiments:
293-EBNA cells [1] = assay: Viability of 293-EBNA cells, Alamar Blue; assay type: cell-based, human
Experimental: (§1) Cell viability was measured by a colorimetric assay that uses Alamar Blue dye (Alamar, Inc.) to report cell proliferation, viability and cytotoxicity. This vital dye indicates cell activity by serving as substrate for mitochrondrial dehydrogenases for the formation of soluble dyes which can be quantitated by determining the difference in absorbance between A570 and A600 using a plate reader.
as §1, with “[…]” for “colorimetric”
This example illustrates that CT2576 suppressed both tat-dependent and TNF-α induced HIV-LTR transcription with an IC50 of approximately 10 μM. Study of the effects of CT2576 on cell toxicity was performed using the Alamar Blue™ dye (Alamar Biosciences) according to the manufacturer's instructions. CT2576 was not toxic to 293-EBNA cells at concentrations up to 35 μM. To show CT2576 can inhibit HIV expression, CT2576 was tested for the ability to block HIV p24 antigen expression in chronically or acutely infected cells. Specifically, CT2576 inhibited the TNF-α and IL-6 induced and the constitutive expression of HIV in the chronically infected U1 cells and in peripheral blood lymphocytes (PBL) freshly infected with a HIV strain from a clinical isolate with an IC50 of approximately 1 μM. Pharmacological inhibition of synthesis of selected PL may therefore be a novel therapeutic approach to suppression of HIV replication.

[2] = tested on: CMV promoter in 293-EBNA cells; assay: AP reporter gene expression from CMV promoter, 293-EBNA cells stably transfected with pCMV.AP; assay type: cell-based, human cytomegalovirus; human cells; details: for IC50: Homo sapiens, 293-EBNA stably transfected with pCMV.AP (FIG. 6), read-out: IC50, AP reporter gene expression (pCMV.AP); for inhibition of AP expression (CMV promoter): in words
Experimental: An assay for measuring the anti-viral activity of the compounds involves testing the abilities of the compounds to inhibit gene expression directed by specific viral promoters in cell lines. Specifically, a plasmid construct, pCMV.AP, using the human cytomegalovirus (CMV) enhancer and promoter to direct the expression of the secreted human placental alkaline phosphatase reporter gene were transformed into a tumor cell line (e.g., 293-EBNA cells). The cultured cells were treated with various concentrations of the compounds. The expression of the alkaline phosphatase (AP) reporter gene in the individual cultures can then be measured by following the change in absorbance at A405 of the cell conditioned media in the presence of a suitable substrate (e.g., ortho-nitrophenol phosphate) (Berger et al., Gene 66:1,1988).
The construction of expression vectors for secreted placental alkaline phosphatase (sPAP) was performed by obtaining a mammalian episomal expression vector pBL3, derived from the plasmids pMEP4 and pCEP4 (Invitrogen Corp). Specifically, a 600 bp Spe I--Kpn I fragment spanning the CMV promoter from pCEP4 and a 9500 bp Xba I--Kpn I vector fragment from pMEP4 were isolated and ligated together to form pBL3. Full length sPAP cDNA was amplified by PCR using the plasmid pGEM4Z/SEAP (ATCC) as template with primers 5'-[…]-3' (SEQ ID NO. 1) and 5'-[…]-3' (SEQ ID NO. 2). The PCR product was then digested with Xba I and Sal I and inserted between the Nhe I site and the Xho I site within the multiple cloning region of pBL3. The resulting plasmid was designated as PCMV.AP.

293-EBNA cells [3] = tested on: 293-EBNA cells
[4] = tested on: HIV-LTR promoter (tat transactivation) in 293-EBNA cells; assay: AP reporter gene expression from HIV-LTR promoter with tat expression vector, 293-EBNA cells; assay type: cell-based, HIV; human cells; details: 293-EBNA cells, HIV promoter, in words
Text: The plasmid construct, pHIV.AP, using the human immunodeficiency virus (HIV) long terminal repeat (LTR) promoter (derived from pU3R-III CAT, Sodroski et al., Science 227:171, 1985) to direct the expression of the sPAP reporter gene, was made by replacing the CMV promoter region from pCMV.AP with the HIV-LTR promoter. PHIV.AP was co-transfected with pSV2tat72, an expression vector for the 72 amino acids tat protein from HIV (Frankel and Pabo, Cell 55:1189-1193, 1988), into 293-EBNA cells (Invitrogen). The cultured cells were treated with various concentrations of the compounds. The expression of the alkaline phosphatase (AP) reporter gene in the individual cultures was measured by following change in absorbance at 405 nm of the cell conditioned media in the presence of a suitable substrate (e.g., ortho-nitrophenol phosphate) (Berger et al., Gene 66:1-10, 1988).
We set up a cell-based system with a cell line cotransfected with an expression plasmid using HIV-1-LTR promoter to direct synthesis of AP reporter gene and an expression plasmid to direct synthesis of the first 72 amino acids of tat protein. Plasmid pREP7 (Invitrogen) was converted to pREP7b by deleting 2,040 bp EBNA-1 coding region and by replacing the pBR322 origin of replication (ori) with the pBluescript KS (Stratagene) ori region. The cDNA for secreted placental alkaline phosphatase (AP) was generated by PCR with the primers (5'-[…]-3')(SEQ ID NO. 3) and (5'-[…]-3') (SEQ ID NO. 4)using the plasmid pGEM-4Z/PLAP489 (American Type Culture Collection) as the template. The 2,000 bp Xba I-Sal I fragment obtained was ligated into a Nhe I/Xho I vector derived from pREP7b to generate the plasmid pREP7b.AP. The 44 bp Xba I-Bgl II fragment from plasmid pMEP4 (Invitrogen)and the 36 bp BamH I-Kpn I fragment from pREP7 were ligated into the Xba I-Kpn I vector fragment from pREP7b.AP to generate the plasmid pMCS.AP. The 720 bp Xho I-Hind III fragment encoding the HIV-LTR promoter from the plasmid pU3R-III-CAT (Sodroski et al., Science 227:171-173, 1985) was ligated into the Xho I-Hind III vector fragment of PMCS.AP to generate the plasmid pHIV.AP. The CMV promoter was derived from the 600 bp Spe I-Asp718 I fragment from pCEP4 (Invitrogen). The 360 bp SV40 early promoter fragments were produced from pSV2tat72 (Frankel et al., Cell 55:1189-1193,1988) by PCR using the primers (5'-[…]-3') (SEQ ID NO. 5) and (5'-[…]-3') (SEQ ID NO. 6). The 480 bp phosphoglycerate kinase (PGK) promoter fragment was amplified from human placental genomic DNA (Promega, Madison, Wis.) based on published sequence (Pfeifer et al., Science 246:810-813, 1990) using the primers (5'-[…]-3') (SEQ ID NO. 7) and (5'-[…]-3') (SEQ ID NO. 8). The above fragments were ligated into the Xba I-Asp718 I vector fragment of pHIV.AP to generate pHIV2.AP, pHIV3.AP, pCMV.AP, pSVE.AP and PPGK.AP respectively. The tat-expression plasmid directed by HIV-LTR promoter, pHIV.tat, was generated by inserting the 400 bp EcoRV-HindIII fragment from pHIV.AP into the PvuII-HindIII vector fragment from pSV2tat72 (Frankel et al., Cell 55:1189-1193, 1988).
Transient transfections with various expression plasmids were performed on a human kidney embryonic cell line 293-EBNA (Invitrogen) using the cationic lipid DOTAP (Boehringer Mannheim). The cell culture media were changed 24 hr after transfection into a serum-free medium AIM V (Life Technologies) before addition of compounds or TNF-α (PeproTech) at the appropriate concentrations. AP activity measured by a colorimetric assay (Berger et al., Gene 66:1-10, 1988) was performed 19-24 hr later.

[5] = tested on: PA (phosphatidic acid) formation in tat-transfected and tar-transfected cells; assay: PA mass / myrPA formation in serum-stimulated EB293, 293tat and 293tar cells; assay type: cell-based, human
Experimental: Transformed and serum-stimulated cells were measured for total PA mass according to the methods described herein. […] The columns in FIG. 18 represent: (1) EB293 cells plus serum, (2) EB293 cells plus serum plus CT3556 (10 μM.), (3) 293tat cells plus serum, (4) 293tat cells plus serum plus CT3556 (10 μM.), (5) 293tar cells plus serum, and (6) 293tar cells plus serum plus CT3556 (10 μM.).
This procedure begins with those cells that would be normally infected with a virus, such as a retrovirus. However, it is not necessary to utilize a cell line containing a retroviral genome, such as U1 cells. In view of the necessity to utilize containment facilities when using an infected cell line, it is preferable to utilize a macrophage cell line that is not infected. Examples of appropriate macrophage cell lines include, U937, THP1, U1, and P288s (available from standard sources, such as ATCC). The cells are stimulated with a stimulant with or without a candidate drug. Examples of stimulants include 3-5% serum, such as fetal calf serum, or tumor necrosis factor (TNF) (e.g., 20 ng/ml) both of which are standard laboratory reagents. After a time course (within 5 minutes, preferably within 1 minute), the cells are immersed in ice cold methanol to stop any cellular signaling reactions.
One must first quantitatively and qualitatively separate PAs from the other lipids found in serum by a chemical extraction of lipids and high performance liquid chromatography (HPLC) to separate and detect PAs. Chemical extraction can be accomplished, for example, by the method of Bligh et al. (Canadian J. Biochem. Physiol. 37:911-917, 1959) or that of Folch et al. (J. Biol. Chem. 226:497-509, 1957). Briefly, the method of Bligh et al. involves an organic extraction of lipids from biological tissue homogenates or fluids. One volume of sample and three volumes of methanol:chloroform (2:1) are vigorously shaken for 2 min. One volume of chloroform is added and then shaken vigorously for 30 sec. One volume of water is added and then shaken vigorously for 30 sec. The mixture is filtered and the upper aqueous layer is discarded. The lower organic layer contains a mixture of lipid classes. The method of Folch et al. involves the extraction of lipids from biological tissue homogenates or body fluids. One volume of sample plus 20 volumes of chloroform:methanol (2:1) are vigorously shaken for 2 min. The mixture is filtered and an amount of 0.1 N KCl equal to 20% of the extraction mixture volume is added and the mixture is shaken vigorously for 2 min. The aqueous and organic phases are allowed to separate. The upper aqueous layer is discarded. The lower organic layer contains a mixture of lipid classes. Free fatty acids and neutral lipids can be separated from phospholipids by normal phase high performance liquid chromatography (HPLC) by modifying the method of Van Kessel et al. (Biochim et Biophys Acta 486:524-530, 1977). This method involves separation of lipids into their major classes by normal phase (silica) high performance liquid chromatography (HPLC). A 5 micron, 25 cm×0.45 cm silica HPLC column is connected to a binary solvent delivery system followed with a UV detector. The lipid sample is injected on the column and a solvent gradient is run at 1.0 ml/min. […]
Transformed and serum-stimulated cells were measured for total PA mass according to the methods described herein. […]

Compound | cytotoxic effect on 293-EBNA cells (Alamar Blue) (293-EBNA cells [1]) | IC50 [2] [µM] | effect on cell viability / cytotoxicity (293-EBNA cells [3]) | inhibition of AP expression (CMV promoter) [2] | inhibition of AP expression (HIV-LTR promoter) [4] | inhibition of myrPA formation in stimulated cells ([5]; 10 μM, tat-transfected cells stimulated with serum) | PA mass, 293tar cells plus serum ([5]; CT3556 10 μM (FIG. 18)) | PA mass, 293tat cells plus serum ([5]; CT3556 10 μM (FIG. 18))
CCCCCCCCCCNCC(O)CCCCCCCn1c(=O)c2c(ncn2C)n(C)c1=O (stereo not drawn) [CT2571, 1-(9-decylamino-8-hydroxynonyl)-3,7-dimethylxanthine] | cytotoxic | 8 | – | – | – | – | – | –
CCCCCCNCCCC(O)CCCCCCCn1c(=O)c2c(ncn2C)n(C)c1=O (stereo not drawn) [CT2575, 1-(11-hexylamino-8-hydroxyundecyl)-3,7-dimethylxanthine] | no significant cytotoxic effect | 3 | minimal cytotoxic effects | inhibit CMV promoter driven expression | inhibit HIV promoter driven expression | – | – | –
Cn1cnc2c1c(=O)n(CCCCCCCCCC(O)CNc1ccccc1)c(=O)n2C (stereo not drawn) [CT3528, N-(11-phenylamino-10-hydroxundecyl)-3,7-dimethylxanthine] | no significant cytotoxic effect | – | – | No appreciable inhibition of AP expression | – | – | – | –
CCCCCCCCNCCCCCCCCCCCn1c(=O)c2c(ncn2C)n(C)c1=O [CT3556, 1-(11-N-octylaminoundecyl)-3,7-dimethylxanthine] | – | – | – | – | – | inhibited myrPA formation in stimulated cells | significant drop in PA mass | increase in PA was blocked
